Earlier results, collected in patent publication US10494420B2, “Mast cell stabilizers for treatment of hypercytokinemia and viral infection” (priority 2016, dated 2019).

Key:
H5N1 Influenza Virus = details: mouse, in vivo
[1] = intranasal delivery versus any other route, rabbits

## CN1CCC(=C2c3ccccc3CC(=O)c3sccc32)CC1 [ketotifen]
H5N1 Influenza Virus
  impact on survival: increased when the compounds were combined
  survival of mice: increase survival of mice
Mast cells
  mast cell degranulation and release of mediators (histamine, TNF-α, prostaglandins, leukotrienes, interleukins): inhibit mast cell degranulation
[1]
  bioavailability: more bioavailable using intranasal delivery
